Structures can show the parent of a compound that is named as a salt. Where two headings read alike, the source gives them in different places.
Legend:
DNA polymerase [1] = assay: Primer extension reaction with XNTPs as substrates (additive screen and MGB titration), gel electrophoresis of Xpandomer products; type: biochemical; details: for enhancement of XNTP polymerization in titration: FIG. 5, MGB ranging from 75 to 600 μM, highest concentration most robust enhancement; for amount of MGB demonstrating reliable enhancement of XNTP polymerization: further titration experiments, FIG. 6
Description: However, initial transcription of the sequence of the natural DNA template onto the measurable Xpandomer relies on the ability of DNA polymerase to utilize XNTPs as substrates (the generalized structure of an XNTP is discussed herein with reference to FIG. 1A and FIG. 2). […] In an effort to improve the efficiency and accuracy of XNTP polymerization into Xpandomers, a wide variety of additives was screened for the ability to enhance DNA polymerase primer extension reactions using XNTPs as substrates.
A typical primer extension reaction includes the following reagents: 2 pmol primer, 2.2 pmol 45 mer oligonucleotide template, 50 pmol of each XNTP (XATP, XCTP, XGTP, and XTTP), 50 mM Tris HCl, pH 6.79, 200 mM NaCl, 20% PEG, 5% NMS, 0.5 nmol polyphosphate 60.19, 0.3 mM MnCl2, and 0.6 μg of purified recombinant DNA polymerase protein. Reactions are run for 1 hr at 23° C. Reaction products (i.e. constrained Xpandomers) are treated to cleave the phosphoramidate bonds, thereby generating linearized Xpandomers. Reaction products are analyzed using gel electrophoresis on 4-12% acrylamide gels to resolve and visualize Xpandomer products of different lengths. For the additive screen, reaction additives were typically tested in the micro to millimolar range.
Using the primer extension reaction described in Example 1, titration experiments were performed to determine the optimal amount of MGB for enhancement of XNTP polymerization.

DNA polymerase [2] = assay: Sequencing by Expansion (SBX) of primer extension products, nanopore reads aligned to a 45 mer template; type: biochemical; details: FIG. 7B, no additive control not accurate past base 20
Procedure: To investigate the accuracy of enhancement of XNTP polymerization, primer extension products were sequenced using the SBX protocol. Briefly, the constrained Xpandomer products of XNTP polymerization are cleaved to generate linearized Xpandomers. This is accomplished by first quenching the extension reaction with a solution containing 100 mM EDTA, 2 mM THPTA, and 2% Tween-20. Then the sample is subjected to amine modification with a solution of 1 M NaHCO3 and 1 M succinic anhydride in DMF. Cleavage of the phosphoramidate bonds is carried out with 37% HCl and linearized Xpandomers are purified with QIAquick columns (QIAGEN, Inc.).
For sequencing, protein nanopores are prepared by inserting α-hemolysin into a DPhPE/hexadecane bilayer member in buffer B1, containing 2 M NH4Cl and 100 mM HEPES, pH 7.4. The cis well is perfused with buffer B2, containing 0.4 M NH4Cl, 0.6 M GuCl, and 100 mM HEPES, pH 7.4. The Xpandomer sample is heated to 70° C. for 2 minutes, cooled completely, then a 2 μL sample is added to the cis well. A voltage pulse of 90 mV/390 mV/10 μs is then applied and data is acquired via Labview acquisition software.
Sequence data was analyzed by histogram display of the population of sequence reads from a single SBX reaction. […]

[3] = additive screen, primer extension with XNTPs, 1 hr at 23° C., additives typically tested in the micro to millimolar range

NC(COP(=O)(O)O)C(=O)O (racemic) [O-phospho-DL-serine]
Extension Effect (DNA polymerase [1]; [3]): Inhibitory

Nc1cc(C(=O)O)ccc1C(=O)O [2-Aminoterephthalic acid]
Extension Effect (DNA polymerase [1]): Inhibitory

Cl.Nc1ccc2cc3ccc(N)cc3nc2c1 [3,6-Diaminoacridine Hydrochloride, reference compound]
effect on primer extension with XNTPs (summary of additive screen) (DNA polymerase [1]; additive screen): significantly and reproducibly enhanced
Extension Effect (DNA polymerase [1]; [3]): Beneficial

O=S(=O)([O-])CCC[n+]1ccccc1 [3-(1-pyridinio)-1-propanesulfonate]
Extension Effect (DNA polymerase [1]; [3]): No effect

Nc1cc(C(=O)O)cc(C(=O)O)c1 [5-Aminoisophthalic acid]
Extension Effect (DNA polymerase [1]; [3]): Inhibitory

CCCCCCCCCCCCCC(=O)NCCC[N+](C)(C)CCCS(=O)(=O)[O-] [ASB-14 (amidosulfobetaine)]
Extension Effect (DNA polymerase [1]; [3]): No effect

CC(C)=O [Acetone]
Extension Effect (DNA polymerase [1]; [3]): Beneficial

CC#N [Acetonitrile]
Extension Effect (DNA polymerase [1]; [3]): No effect

N=C(N)NCCC[C@H](N)C(=O)O [Arginine]
Extension Effect (DNA polymerase [1]; [3]): Inhibitory

NCc1ccccc1 [Benzylamine]
Extension Effect (DNA polymerase [1]; [3]): No effect

C[N+](C)(C)CC(=O)O [Betaine]
Extension Effect (DNA polymerase [1]; [3]): Inhibitory

CCCCCCCc1ccc(C(O)CC[N+](C)(C)CCCS(=O)(=O)[O-])cc1 (stereo not drawn) [C7BzO]
Extension Effect (DNA polymerase [1]; [3]): No effect

N=C(N)c1ccc(-c2cc3ccc(C(=N)N)cc3[nH]2)cc1 [DAPI, reference compound]
effect on XNTP polymerization reaction, gel of FIG. 4 (extension product length vs no-additive lane 1, around 14 XNTPs) (DNA polymerase [1]; FIG. 4 representative gel): inhibitory effect
Extension Effect (DNA polymerase [1]; [3]): No effect

C[S+](C)[O-] [DMSO]
Extension Effect (DNA polymerase [1]; [3]): Length increases

CN(C)C=O [Dimethylformamide]
Extension Effect (DNA polymerase [1]; [3]): No effect

CC(=O)NCC(=O)O.CC(=O)NCC(=O)O.N=C(N)c1ccc(N=NNc2ccc(C(=N)N)cc2)cc1 [Diminazine Aceturate, reference compound]
Extension Effect (DNA polymerase [1]; [3]): No effect

CCCCCCCCCCCC[N+](C)(C)C.[Cl-] [Dodecyltrimethylammonium chloride]
Extension Effect (DNA polymerase [1]; [3]): Inhibitory

C[N+](C)(C)CC(=O)NN.[Cl-] [Girards Reagent T]
Extension Effect (DNA polymerase [1]; [3]): No effect

OCC(O)CO [Glycerol]
Extension Effect (DNA polymerase [1]; [3]): No effect

CN1CCN(c2ccc3[nH]c(-c4ccc5[nH]c(-c6ccc(O)cc6)nc5c4)nc3c2)CC1 [Hoescht Stain solution 33258, reference compound]
enhancement of XNTP polymerization in titration (DNA polymerase [1]): dose-dependent enhancement
effect on primer extension with XNTPs (summary of additive screen) (DNA polymerase [1]; additive screen): significantly and reproducibly enhanced
Extension Effect (DNA polymerase [1]; [3]): Beneficial
amount of MGB demonstrating reliable enhancement of XNTP polymerization (DNA polymerase [1]): 0.6 mM
accuracy of sequence reads of SBX sequencing (DNA polymerase [2]): increased the accuracy of the sequence reads completely to the end of the 45 mer template

CCOc1ccc(-c2nc3ccc(-c4nc5ccc(N6CCN(C)CC6)cc5[nH]4)cc3[nH]2)cc1 [Hoescht Stain solution 33342, reference compound]
enhancement of XNTP polymerization in titration (DNA polymerase [1]): dose-dependent enhancement
effect on primer extension with XNTPs (summary of additive screen) (DNA polymerase [1]; additive screen): significantly and reproducibly enhanced
Extension Effect (DNA polymerase [1]; [3]): Beneficial
amount of MGB demonstrating reliable enhancement of XNTP polymerization (DNA polymerase [1]): 0.8 mM

CN1CCN(c2ccc3nc(-c4ccc5nc(-c6ccc(N(C)C)cc6)[nH]c5c4)[nH]c3c2)CC1 [Hoescht Stain solution 34580, reference compound]
effect on primer extension with XNTPs (summary of additive screen) (DNA polymerase [1]; additive screen): significantly and reproducibly enhanced
Extension Effect (DNA polymerase [1]; [3]): Beneficial

c1c[nH]cn1 [Imidazole]
Extension Effect (DNA polymerase [1]; [3]): No effect

[Mg+2] [Magnesium]
Extension Effect (DNA polymerase [1]; [3]): Inhibitory

CCCCCCCCCCCCN(C)CC(=O)O [N-Lauryl Sarcosine]
Extension Effect (DNA polymerase [1]; [3]): Inhibitory

CN1C(=O)CCC1=O [N-methyl succinimide]
Extension Effect (DNA polymerase [1]; [3]): Beneficial

[Cl-].[Na+] [NaCl]
Extension Effect (DNA polymerase [1]): Beneficial

Cn1cc(NC(=O)c2cc(NC(=O)CN=C(N)N)cn2C)cc1C(=O)NCCC(=N)N [Netropsin dihydrochloride, reference compound]
enhancement of XNTP polymerization in titration (DNA polymerase [1]): dose-dependent enhancement
effect on primer extension with XNTPs (summary of additive screen) (DNA polymerase [1]; additive screen): significantly and reproducibly enhanced
Extension Effect (DNA polymerase [1]; [3]): Beneficial

O=S(=O)([O-])[O-].[Ni+2] [NiSO4]
Extension Effect (DNA polymerase [1]; [3]): Inhibitory

C[N+](=O)[O-] [Nitromethane]
Extension Effect (DNA polymerase [1]; [3]): Inhibitory

N[C@@H](Cc1ccc(OP(=O)(O)O)cc1)C(=O)O [O-Phospho-L-tyrosine]
Extension Effect (DNA polymerase [1]; [3]): Inhibitory

N=C(N)c1ccc(OCCCCCOc2ccc(C(=N)N)cc2)cc1 [Pentamidine isethionate salt, reference compound]
Extension Effect (DNA polymerase [1]; [3]): No effect

O=C(/C=C/C=C/c1ccc2c(c1)OCO2)N1CCCCC1 [Piperdine]
Extension Effect (DNA polymerase [1]; [3]): Inhibitory

[Cl-].[K+] [Potassium Chloride]
Extension Effect (DNA polymerase [1]; [3]): No effect

CC1COC(=O)O1 (stereo not drawn) [Propylene carbonate]
Extension Effect (DNA polymerase [1]; [3]): Inhibitory

CCCCCC(=O)[O-].[Na+] [Sodium Hexanoate]
Extension Effect (DNA polymerase [1]; [3]): No effect

CCCCCCCCCCCCOS(=O)(=O)[O-].[Na+] [Sodium docecyl sulfate]
Extension Effect (DNA polymerase [1]; [3]): No effect

CCCCCCCCCCCCC/C=C/[C@@H](O)[C@@H](N)CO [Sphingosine]
Extension Effect (DNA polymerase [1]; [3]): No effect

C[N+](C)(C)C.[Cl-] [TMACl]
Extension Effect (DNA polymerase [1]; [3]): No effect

C[N+](C)(C)[O-] [TMAO]
Extension Effect (DNA polymerase [1]; [3]): Variable effects

C1CCOC1 [Tetrahydrofuran]
Extension Effect (DNA polymerase [1]; [3]): No effect

CC(=O)O.CCN(CC)CC [Triethylamine acetate]
Extension Effect (DNA polymerase [1]; [3]): Inhibitory

NC(N)=O [Urea]
Extension Effect (DNA polymerase [1]; [3]): Beneficial

CDPI3 [reference compound]
Extension Effect (DNA polymerase [1]; [3]): Variable effects

Triton
Extension Effect (DNA polymerase [1]; [3]): No effect

Source: patent US20210139966A1, “ENHANCEMENT OF NUCLEIC ACID POLYMERIZATION BY MINOR GROOVE BINDING MOIETIES” (priority 2018, published 2021)
